{"source": "patent US20230416712A1", "about": "“APPLICATION OF SUBSTANCE THAT REDUCES THE CONTENT OR ACTIVITY OF KAT7 IN PREVENTING SENESCENCE AND TREATING HEPATIC FIBROSIS” (INSTITUTE OF ZOOLOGY, CHINESE ACADEMY OF SCIENCES, priority 2020, published 2023)", "key": {"[1]": {"test_system": "WS mesenchymal precursor cells (WS hMPCs)", "assay": "Senescence of WS hMPCs treated with KAT7 inhibitor", "type": "cell-based, human", "conditions": "50 nM; passages 2-3 after treatment; DMSO control; FIGS. 6C-6D", "method": "Passage-4 WS mesenchymal precursor cells (WS hMPCs) in example 1 were used as test cells, and the cells were treated with a DMSO solution of 50 nM of WM-3835. The WM-3835 (with a structural formula as shown in a of FIGS. 6A-6I) was synthesized by entrusting WuXi AppTec, and a DMSO solvent was used as a control.\nAfter the treatment, the cells were continuously passaged to passages 2-3. The cells were collected to detect a KAT7 protein knockdown efficiency (FIG. 6B), and SA-β-gal staining of cell senescence markers and detection of a cell proliferation molecular marker (Ki67) were performed."}, "[2]": {"test_system": "Human primary hepatocytes (hHEPs)", "assay": "Senescence of human primary hepatocytes treated with KAT7 inhibitor", "type": "cell-based", "conditions": "100 nM", "method": "Human primary hepatocytes (hHEPs) were used as test cells (a product of Lonza, with an article No. of HUCPI), and the cells were treated with a DMSO solution of 100 nM of WM-3835, and DMSO was used as a control."}}}
{"smiles": "Cc1cc(-c2ccccc2)cc(C(=O)NNS(=O)(=O)c2cccc(O)c2)c1F", "note": "[WM-3835]", "values": [{"measurement": "senescence of WS hMPCs (SA-β-gal staining, Ki67)", "setting": "[1]", "value": "can delay the senescence of WS hMPCs"}, {"measurement": "expressions of inflammatory genes and SASP-associated genes (RNA-seq)", "setting": "[2]; FIGS. 6E-6I", "value": "down-regulated"}, {"measurement": "expressions of metabolism-related genes (RNA-seq)", "setting": "[2]; FIGS. 6E-6I", "value": "up-regulated"}, {"measurement": "senescence of hepatocytes (P15, IL6 by RT-qPCR)", "setting": "[2]; cultured 8 d, compared with DMSO group", "value": "significantly delay the senescence of hepatocytes"}]}
